We go through one substance from US20220339187A1, “ANTIMICROBIAL PEPTIDE-SELENIUM NANOPARTICLES” (The University of Melbourne, priority 2019, published 2022).

In data set [1] the test system is E. faecalis ATCC 29212. Description: Membrane potential change test (BacLight, DiOC2(3)). It counts as cell-based, Enterococcus faecalis. The conditions noted are these: 6.25 or 12.5 μg/ml. As for the experimental part: Membrane potential change was measured using a BacLight Bacterial Membrane Potential Kit (Invitrogen). The bacterial strain methicillin-sensitive S. aureus (MSSA) ATCC 29213, E. faecalis ATCC 29212, E. coli ATCC 25922 were cultured in MHB at 37° C. 50 μL of different concentrations of Se NPs, Se NP-ε-PL or pure ε-PL in PBS solution was added into each well of 96-well microplates. 50 μL MHB with 2.5×10^6 cells/mL bacteria was then added into each well. 50 μL MHB with 2.5×10^6 cells/mL bacteria was added to 50 μL PBS to act as untreated control. Carbonyl cyanide 3-chlorophenylhydrazone (CCCP) was added to untreated control at a final concentration of 5 μM to act as fully depolarized control. 3,3′-Diethyloxacarbocyanine Iodide (DiOC2(3)) was added to all wells at a final concentration of […]. […] The untreated (polarized) and CCCP-treated (fully depolarized) controls were used to determine the percentage of depolarized cells. Two independent experiments were done for this test, and two technical replicates were adopted for each independent experiment.

The test system of data set [2] is all tested bacterial strains (S. aureus, E. faecalis, E. coli, A. baumannii, P. aeruginosa, K. pneumoniae). Description: Membrane disruption test (PI-positive cells). The format is cell-based. The note with it: 6.25 or 12.5 μg/ml, 90 min. As for the experimental part:
The bacterial strains methicillin-sensitive S. aureus ATCC 29213, E. faecalis ATCC 29212, E. coli ATCC 25922, A. baumannii 2208 ATCC19606, P. aeruginosa strain PAO1-LAC ATCC 47085 and K. pneumoniae ATCC 13883 were cultured in MHB at 37° C. 50 μL of different concentrations of Se NPs, Se NP-ε-PL or pure ε-PL in PBS solution was added into each well of 96-well microplates. 50 μL MHB with 2.5×10^6 cells/mL bacteria was then added into each well. 50 μL MHB with 2.5×10^6 cells/mL bacteria was added to 50 μL PBS to act as untreated control. After 90 min incubation at 37° C., 0.1% of a green-fluorescent nucleic acid stain (SYTO 9, Thermo Fisher Scientific) and 0.1% of propidium iodide (PI) were added to each well and incubated again for 5 min. SYTO 9 can stain both live and dead Gram-positive and Gram-negative bacteria. PI is a red-florescent nuclear and chromosome counterstain but is not permeant to cells with intact plasma membranes. A Cell Lab Quanta SC MPL flow cytometer (Beckman Coulter) was adopted to measure the percent of PI-positive cells. Two independent tests were performed, and two parallel samples were used in each test for each variation.

Data set [3] has as its system E. faecalis ATCC 29212. Description: Helium ion microscopy (HIM) of treated bacteria. It counts as cell-based, Enterococcus faecalis. The conditions noted are these: 90 min incubation. As for the experimental part:
The morphologies of bacterial strains methicillin-sensitive S. aureus (MSSA) ATCC 29213, E. faecalis ATCC 29212, E. coli ATCC 25922, A. baumannii 2208 ATCC19606 and K. pneumoniae ATCC 13883 after treatment with Se NPs, Se NP-ε-PL or pure ε-PL were observed using Helium Ion Microscopy (HIM, Zeiss, Germany). The samples were prepared in the following steps. First, 100 μL of 125 μg/mL Se NPs, Se NP-ε-PL or pure ε-PL in PBS solution was added to each well of 96-well microplates, 100 μL pure PBS was used as untreated control. Afterwards, 100 μL MHB with 1.25×10^7/mL bacteria was added to each well. After 90 min incubation, 10 μL of both treated and untreated bacteria was dropped on clean silicon wafers, and they were then dried at 37° C. for 20 min. The dried samples were transferred to a 12-well plate, 2.5% glutaraldehyde was added to each well to fix the bacteria cells for 1 h, then gradient ethanol solution (30%, 50%, 60%, 70%, 80%, 90%, 95% and 100%) was used for dehydration. The prepared samples were dried in the fume hood overnight before use.

The subject of data set [4] is methicillin-sensitive S. aureus (MSSA) ATCC 29213. Description: ROS production test (CellROX Orange, flow cytometry). The conditions noted are these: 6.25 or 12.5 μg/ml. The format is cell-based, Staphylococcus aureus. How it is done:
The bacterial strains methicillin-sensitive S. aureus (MSSA) ATCC 29213, E. faecalis ATCC 29212, E. coli ATCC 25922 were cultured in MHB at 37° C. 50 μL of different concentration of Se NPs, Se NP-ε-PL or pure ε-PL in PBS solution was added into each well of a 96-well microplate. 50 μL MHB with 2.5×10^6 cells/mL bacteria was then added into each well. After 90 min incubation at 37° C., CellROX® Orange Reagent was added into each well at a final concentration of 750 nM. The cells were incubated for a further 1 h. The fluorescence from the CellROX Orange Reagent was measured on FL-3 (red fluorescence channel) using the Cell Lab Quanta SC MPL flow cytometer (Beckman Coulter). Two independent experiments were done for this test, and two technical replicates were adopted for each independent experiment.

Data set [5] has as its system multidrug-resistant K. pneumoniae (MDR). Description: CFU measuring assay / MBC calculation. It counts as cell-based, Klebsiella pneumoniae. The conditions noted are these: 90 min at 37° C., linear regression, mean ± s.d. As for the experimental part:
(§1) For the CFU measuring assay, 50 μL of different concentrations of Se NPs, Se NP-ε-PL or pure ε-PL in PBS solution was added into each well of 96-well microplates, then 50 μL MHB with 2.5×10^6 cells/mL bacteria were added into each well. After incubating the microplate at 37° C. for 90 min, the bacterial solutions were diluted 10^−1, 10^−2, 10^−3 and 10^−4 times, then 10 μL of each dilution was transferred onto agar plates with MHB. The agar plates were incubated overnight, before the bacterial colony forming units were observed and measured.
Concentration-killing curves were plotted with CFUs/mL as a function of antibacterial agent concentration, and linear regression analysis was used to determine the lowest concentration (MBC) at which the CFU/mL becomes zero.

The next data set deals with Gram-negative bacteria. Description: Colony forming unit assay (bactericidal effect). The format is cell-based. How it is done: as §1
In a further data set the test system is mice. The note with it: dosage of 5 g/kg; cited from earlier work.

Consider ε-poly-L-lysine [ε-PL], for which, in the data set on E. faecalis ATCC 29212 [1], the “depolarisation of cell membrane” value is “depolarized cell membranes”. Moreover, the “cell membrane disruption (PI positive cells)” value in data set [2] is on record as “membrane disruption effects”. In addition, the “cell morphology after treatment (HIM)” value with E. faecalis ATCC 29212 [3] is “some were dead and distorted”. In data set [4], the “ROS production (high ROS production cells)” value is “slight promotion of ROS production”. The MBC (usually the lowest tested concentration that kills the bacteria rather than only halting them) in data set [5] was 24.7 ± 0.5 µg/mL. Further, in the data set with Gram-negative bacteria, the “bactericidal effect (CFU)” value is listed as “high bactericidal efficacy”. Also, in the data set with mice, the “mortality, acute oral toxicity” value is “no mortality”.
